Tests used:
[1] = Light fastness of recorded image under Xe light; format: physicochemical; conditions: Xe light (17000 lux) for 7 days; retention of reflection density 1.0
Description: Next, the recorded samples were exposed to an Xe light (17000 lux) for 7 days, and rested for the light stability (light fastness) of the recorded images. After the exposure, the status A reflection density of the part of each sample having an original status A reflection density of 1.0 before the exposure was measured, and the retention (by percentage) to the reflection density of 1.0 after exposure to that before exposure indicates the image stability. With the retention percentage, the samples were ranked in three, A (from 80% to less than 100%), B (from 60% to less than 80%) , C (less than 60%).

[2] = Absorption spectrometry in ethyl acetate solution; format: physicochemical; conditions: 1×10^−6 mol/L, optical path length 10 mm
Description: The thus-obtained compounds (1) to (4) were analyzed for absorption spectrometry in an ethyl acetate solution (concentration: 1×10^−6 mol/L, optical path length; 10 mm). The data of ^1H NMR spectrometry (in heavy chloroform) and MS spectrometry of the obtained compounds (1) to (4) are shown in Table 1 below.

SMILES	Light Fastness [1]	Maximum Absorption Wavelength [2] [nm]
CCN(CC)c1ccc(N=C2C=C(NC(C)=O)C(=O)C(Cl)=C2C)c(C)c1 [Comparative Dye 4]	A (A (from 80% to less than 100%))	–
CCN(CC)c1ccc(N=C2C=C(NC(C)=O)C(=O)C(Cl)=C2C)cc1 [Comparative Dye 1]	A (A (from 80% to less than 100%))	–
CCN(CC)c1ccc(N=C2C=C(NC(=O)c3ccccc3)C(=O)C(Cl)=C2C)c(C)c1 [Comparative Dye 5]	A (A (from 80% to less than 100%))	–
CCN(CC)c1ccc(N=C2C=C(NC(C)=O)C(=O)C=C2C)c(C)c1 [Comparative Dye 3]	B (B (from 60% to less than 80%))	–
CCC(=O)NC1=CC(=Nc2ccc(N(CC)CC)cc2)C(C)=C(Cl)C1=O [Compound (1)]	A (A (from 80% to less than 100%))	626

Reference: patent US20080242542A1, “INDANILINE DYE, THERMAL TRANSFER RECORDING INK SHEET, THERMAL TRANSFER RECORDING METHOD, COLOR TONER, INKJET INK, AND COLOR FILTER” (FUJIFILM Corporation, priority 2007, published 2008)
